Experimental data published in PMC9656702, “Unveiling a New Selenocyanate as a Multitarget Candidate with Anticancer, Antileishmanial and Antibacterial Potential” (Molecules, 2022).

Columns and labels:
[1] = DPPH radical scavenging assay; conditions: 0.06 mg/mL, after two hours
Procedure: Oxidative stress has been associated with a wide range of pathologies. […] Measurements were performed at 2 concentrations and recorded at eight different time points. Ascorbic acid (Asc) and Trolox were used as positive controls. The results are presented as the percentage of DPPH radical scavenging activity and are outlined in Figure 2.
The antioxidant activity of the selenocompounds was determined by the DPPH assay following a procedure previously published by our group. Briefly, the compounds were dissolved in absolute methanol at a concentration of 1 mg/mL, and a dilution was prepared. Asc and Trolox were used as positive controls. A methanolic solution (100 µM) of DPPH˙ was made daily and […]. The stability of the radical through the time of analysis was checked by absorbance measurements of this solution. A volume of 100 µL of DPPH in methanol was added to 100 µL of the compounds’ solutions to a final concentration of 0.03 or 0.06 mg/mL, and the decolorization of the purple radical to the yellowish reduced form was followed by recording the absorbance at 517 nm. Determinations were recorded at eight different time intervals from 0 to 120 min on a BioTeck PowerWave XS spectrophotometer and the data were collected using KCJunior software. All the measurements were carried out in triplicate. […]

S. aureus = assay: Growth curve study, S. aureus; assay type: cell-based, Staphylococcus aureus; conditions: for Bacterial growth of S. aureus at 2MIC: highest concentration tested (2MIC), up to 48 h
Procedure: To further examine the inhibitory effect of the moderately active compounds 1a and 2a on the growth of the six bacterial strains tested, growth kinetic studies were performed. Thus, the six bacterial strains were exposed to three different concentrations of the test compounds using the MIC values (Table 4) as reference (2MIC, MIC, and MIC/2), while untreated cells were used as negative control. The bacterial growth was recorded by measuring the absorbance at several time points.
A stock solution of selected compounds 1a and 2a was prepared in DMSO, and different concentrations equivalent to 2MIC, MIC, and MIC/2 in TSB of each compound were dispensed into a 96-well plate with a final volume of 100 µL, while only TSB was added for the control wells. Then, 100 µL of a diluted suspension of bacterial cells in TSB with an optical density of 0.125 measured at 600 nm (inoculum of approximately 10^5 CFU/mL) was added to each well, and the incubation was monitored by spectrophotometric measurements. The absorbance was recorded at 600 nm against time (h) at predetermined periods on a microplate reader. The experiments were performed in triplicate.

Row | SMILES | DPPH radical scavenging activity [1] | Delay in the bacterial growth, S. aureus (S. aureus; MIC concentration (25 µg/mL)) | Bacterial growth of S. aureus at 2MIC (S. aureus) | Bacterial growth of S. aureus at MIC/2 (S. aureus; lowest concentration tested, 12.5 µg/mL)
1 | O=C(CC[Se]Cc1ccc2c(c1)OCO2)[c-]1cccc1.[Fe+2].c1cc[cH-]c1 [Compound 2c, 3-((Benzo[d][1,3]dioxol-5-ylmethyl)selanyl)-1-ferrocenylpropan-1-one] | 76.1% |  |  | 
2 | O=C(CC[Se]CC=Cc1ccccc1)[c-]1cccc1.[Fe+2].c1cc[cH-]c1 [Compound 1c, 3-(Cinnamylselanyl)-1-ferrocenylpropan-1-one] | 72.6% |  |  | 
3 | N#C[Se]Cc1ccc2c(c1)OCO2 [Compound 2a, 5-(Selenocyanatomethyl)benzo[d][1,3]dioxole] |  | 44 h | no bacterial growth was detected | exponential growth of bacteria was observed
4 | N#C[Se]C/C=C/c1ccccc1 [Compound 1a, (E)-(3-selenocyanatoprop-1-en-1-yl)benzene] |  |  | no bacterial growth was detected | 
